Laboratory results from patent US20110195111A1, “AQUEOUS COMPOSITIONS AND METHODS” (NATIVIS, INC., priority 2009, published 2011).

System: U-87 glioblastoma cells
Test: U-87 glioblastoma flank tumor growth in mice
Assay type: in vivo
Details: U-87 flank tumors in mice, 24-day period; untreated about 650 mm^3 (FIG. 11)
Experimental: The ability of water exposed to a taxane signal to inhibit a glioblastoma tumor in an animal model was investigated. In this study, nine groups of 8 mice were each injected in the right flank with 7.355×10^6 U-87 glioblastoma cells, and treatment with the various modalities was begun either one day after inoculating the animals with the cells, or when the tumors reached 75-100 mm^3.
Paclitaxel was initially dissolved in a 1:1 v/v mixture of CremaphorEL and ethanol and stored at 4° C. Final dilution of the drug to a concentration of 1.5 mg/ml was made with 0.9% NaCl immediately before use. In Groups 3 and 4, the paclitaxel was administered by intravenous injection into the tail vein at a dose of 15/mg/kg animal weight on each of five consecutive days. The actual volume administered to each animal was about 0.2 ml of the above paclitaxel formulation.
Animals in Groups 5 and 6 received 20 ml/kg (or about 0.5 ml) of water exposed to taxane signal prepared as described in Section VII, with the Range 1 magnetic field. […]
For all groups, tumor volumes were measured every other day by serial caliper measurements to determine tumor width and length, and calculating an approximate tumor volume from the formula: Tumor volume=(length×width^2)/2.

Question: With `CC(=O)O[C@H]1C(=O)[C@@]2(C)[C@H]([C@H](OC(=O)c3ccccc3)[C@]3(O)C[C@H](OC(=O)[C@H](O)[C@@H](NC(=O)c4ccccc4)c4ccccc4)C(C)=C1C3(C)C)[C@]1(OC(C)=O)CO[C@@H]1C[C@@H]2O` [paclitaxel] as the molecule, how does the “increase in tumor volume over the study period, untreated versus treated animals” value read?
Answer: Its value is “more than twice as high in untreated”.
